Data reported in patent US20130171098A1, “Cyclopropyl Fused Indolobenzazepine HCV NS5B Inhibitors” (priority 2006, published 2013).
Where two headings read alike, the source gives them in different places.

Legend:
[1] = biological target: T1, HCV NS5B RdRp genotype 1b (Hepatitis C virus genotype 1b, UniProt Q9WMX2); assay: HCV NS5B RdRp enzyme assay (standard / modified); type: biochemical
T1 construct: The protein was expressed with an 18 amino acid C-terminal truncation to enhance the solubility; made in house; host or cells: E. coli BL21(DE3), pET21a vector
T1 sequence (Q9WMX2 2420-2992): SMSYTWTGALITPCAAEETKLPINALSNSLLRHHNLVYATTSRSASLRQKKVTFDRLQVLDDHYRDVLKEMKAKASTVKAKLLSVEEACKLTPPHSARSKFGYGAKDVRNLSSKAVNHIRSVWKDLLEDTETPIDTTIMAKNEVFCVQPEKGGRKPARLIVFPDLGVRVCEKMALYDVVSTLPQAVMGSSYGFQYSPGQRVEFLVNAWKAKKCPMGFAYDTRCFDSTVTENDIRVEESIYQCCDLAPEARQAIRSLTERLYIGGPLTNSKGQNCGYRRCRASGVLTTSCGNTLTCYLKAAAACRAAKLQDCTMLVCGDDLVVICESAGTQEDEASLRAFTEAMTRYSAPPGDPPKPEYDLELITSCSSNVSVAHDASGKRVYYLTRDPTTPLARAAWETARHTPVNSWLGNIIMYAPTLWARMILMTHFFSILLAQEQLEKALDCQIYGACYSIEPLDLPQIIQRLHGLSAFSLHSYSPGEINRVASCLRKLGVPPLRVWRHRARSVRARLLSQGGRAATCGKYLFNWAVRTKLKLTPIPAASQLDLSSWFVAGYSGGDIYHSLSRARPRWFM

[2] = tested on: HCV replicon cells; assay: HCV replicon FRET / luciferase assay; type: cell-based, Hepatitis C virus
[3] = HCV NS5B RdRp genotype 1b enzyme
[4] = HCV replicon cells, FRET or luciferase activity

Compound	IC50 [1, 3] [nM]	EC50 [2, 4] [nM]	IC50 [1] [nM]	EC50 ([2]; Hepatitis C virus) [nM]
COc1ccc2c(c1)C1CC1(C(=O)N1C3CCC1CN(C(C)=O)C3)Cn1c-2c(C2CCCCC2)c2ccc(C(=O)NS(=O)(=O)N(C)C)cc21 (stereo not shown) [drawing 60]	1 to 500	1 to 500		
CCN1CC2CCC(C1)N2C(=O)C12CC1c1cc(OC)ccc1-c1c(C3CCCCC3)c3ccc(C(=O)NS(=O)(=O)N(C)C)cc3n1C2 (stereo not shown) [drawing 61]	1 to 500	1 to 500		
COc1ccc2c(c1)C1CC1(C(=O)N1C3CCC1CN(C(C)C)C3)Cn1c-2c(C2CCCCC2)c2ccc(C(=O)NS(=O)(=O)N(C)C)cc21 (stereo not shown) [drawing 62]	1 to 500	1 to 500		
COc1ccc2c(c1)C1CC1(C(=O)N1C3CCC1CN(C)C3)Cn1c-2c(C2CCCCC2)c2ccc(C(=O)NS(N)(=O)=O)cc21 (stereo not shown) [drawing 63]	1 to 500	1 to 500		
COc1ccc2c(c1)C1CC1(C(=O)NC1CC3CCC(C1)N3C)Cn1c-2c(C2CCCCC2)c2ccc(C(=O)NS(=O)(=O)N(C)C)cc21 (stereo not shown) [drawing 64]	1 to 500	1 to 500		
COc1ccc2c(c1)C1CC1(C(=O)N1C3CCC1CN(CC1CC1)C3)Cn1c-2c(C2CCCCC2)c2ccc(C(=O)NS(=O)(=O)N(C)C)cc21 (stereo not shown) [drawing 65]	1 to 500	1 to 500		
COc1ccc2c(c1)C1CC1(C(=O)N1C3CCC1CN(c1ccccn1)C3)Cn1c-2c(C2CCCCC2)c2ccc(C(=O)NS(=O)(=O)N(C)C)cc21 (stereo not shown) [drawing 67]	1 to 500	1 to 500		
COc1ccc2c(c1)C1CC1(C(=O)N1C3CCC1CN(C)C3)Cn1c-2c(C2CCCCC2)c2ccc(C(=O)NS(=O)(=O)NC3CC3)cc21 (stereo not shown) [drawing 68]	1 to 500	1 to 500		
CN1CC2CCC(C1)N2C(=O)C12CC1c1cc(OCc3ccccc3)ccc1-c1c(C3CCCCC3)c3ccc(C(=O)NS(=O)(=O)N(C)C)cc3n1C2 (stereo not shown) [drawing 69]	1 to 500	1 to 500		
CN1CC2CCC(C1)N2C(=O)C12CC1c1cc(O)ccc1-c1c(C3CCCCC3)c3ccc(C(=O)NS(=O)(=O)N(C)C)cc3n1C2 (stereo not shown) [drawing 70]	1 to 500	1 to 500		
COc1ccc2c(c1)C1CC1(C(=O)N1C3CCC1CN(C)C3)Cn1c-2c(C2CCCCC2)c2ccc(C(=O)NS(C)(=O)=O)cc21 (stereo not shown) [drawing 89]			1 to 500	1 to 500
CN1CC2CCC(C1)N2C(=O)C12CC1c1cc(OC(F)F)ccc1-c1c(C3CCCCC3)c3ccc(C(=O)NS(=O)(=O)N(C)C)cc3n1C2 (stereo not shown) [drawing 90]			1 to 500	1 to 500
CCS(=O)(=O)NC(=O)c1ccc2c(C3CCCCC3)c3n(c2c1)CC1(C(=O)N2C4CCC2CN(C)C4)CC1c1cc(OC)ccc1-3 (stereo not shown) [drawing 91]			1 to 500	1 to 500
CCN(CC)C(=O)N1CC2CCC(C1)N2C(=O)C12CC1c1cc(OC)ccc1-c1c(C3CCCCC3)c3ccc(C(=O)NS(=O)(=O)C4CC4)cc3n1C2 (stereo not shown) [drawing 92]			1 to 500	1 to 500
CCN(CC)C(=O)N1CC2CCC(C1)N2C(=O)C12CC1c1cc(OC)ccc1-c1c(C3CCCCC3)c3ccc(C(=O)NS(=O)(=O)N4CCN(C)CC4)cc3n1C2 (stereo not shown) [drawing 93]			1 to 500	1 to 500
COc1ccc2c(c1)C1CC1(C(=O)N1C3CCC1CN(C)C3)Cn1c-2c(C2CCCCC2)c2ccc(C(=O)NS(=O)(=O)N3C[C@@H](C)O[C@@H](C)C3)cc21 (stereo partly shown) [drawing 94]			1 to 500	1 to 500
COc1ccc2c(c1)C1CC1(C(=O)N1C3CCC1CN(C)C3)Cn1c-2c(C2CCCCC2)c2ccc(C(=O)NS(=O)(=O)N3CCCCC3)cc21 (stereo not shown) [drawing 95]			1 to 500	1 to 500
CCN(C)S(=O)(=O)NC(=O)c1ccc2c(C3CCCCC3)c3n(c2c1)CC1(C(=O)N2C4CCC2CN(C)C4)CC1c1cc(OC)ccc1-3 (stereo not shown) [drawing 96]			1 to 500	1 to 500
CCN(CC)S(=O)(=O)NC(=O)c1ccc2c(C3CCCCC3)c3n(c2c1)CC1(C(=O)N2C4CCC2CN(C)C4)CC1c1cc(OC)ccc1-3 (stereo not shown) [drawing 97]			1 to 500	1 to 500

Compound	IC50 [1, 3] [nM]	EC50 [2, 4] [nM]	IC50 [1] [nM]	EC50 ([2]; Hepatitis C virus) [nM]
COc1ccc2c(c1)C1CC1(C(=O)N1C3CCC1CN(C)C3)Cn1c-2c(C2CCCCC2)c2ccc(C(=O)NS(=O)(=O)N(C)C(C)C)cc21 (stereo not shown) [drawing 98]			1 to 500	1 to 500
COc1ccc2c(c1)C1CC1(C(=O)N1C3CCC1CN(C)C3)Cn1c-2c(C2CCCCC2)c2ccc(C(=O)NS(=O)(=O)N(C)C3CC3)cc21 (stereo not shown) [drawing 99]			1 to 500	1 to 500
COc1ccc2c(c1)C1CC1C(C(=O)N1C3CCC1CN(C)C3)n1c-2c(C2CCCCC2)c2ccc(C(=O)NS(=O)(=O)C3CC3)cc21 (stereo not shown) [drawing 100]			1 to 500	1 to 500
COc1ccc2c(c1)C1CC1(C(=O)N1C3CCC1CN(C)C3)Cn1c-2c(C2CCCCC2)c2ccc(C(=O)NS(=O)(=O)N3CCC3)cc21 (stereo not shown) [drawing 101]			1 to 500	1 to 500
COc1ccc2c(c1)C1CC1(C(=O)N1C3CCC1CN(C)C3)Cn1c-2c(C2CCCCC2)c2ccc(C(=O)NS(C)(=O)=O)cc21 (stereo not shown) [drawing 102]	1 to 500	1 to 500		
CN1CC2CCC(C1)N2C(=O)C12CC1c1cc(OC(F)F)ccc1-c1c(C3CCCCC3)c3ccc(C(=O)NS(=O)(=O)N(C)C)cc3n1C2 (stereo not shown) [drawing 103]	1 to 500	1 to 500		
CCS(=O)(=O)NC(=O)c1ccc2c(C3CCCCC3)c3n(c2c1)CC1(C(=O)N2C4CCC2CN(C)C4)CC1c1cc(OC)ccc1-3 (stereo not shown) [drawing 104]	1 to 500	1 to 500		
CCN(CC)C(=O)N1CC2CCC(C1)N2C(=O)C12CC1c1cc(OC)ccc1-c1c(C3CCCCC3)c3ccc(C(=O)NS(=O)(=O)C4CC4)cc3n1C2 (stereo not shown) [drawing 105]	1 to 500	1 to 500		
CCN(CC)C(=O)N1CC2CCC(C1)N2C(=O)C12CC1c1cc(OC)ccc1-c1c(C3CCCCC3)c3ccc(C(=O)NS(=O)(=O)N4CCN(C)CC4)cc3n1C2 (stereo not shown) [drawing 106]	1 to 500	1 to 500		
COc1ccc2c(c1)C1CC1(C(=O)N1C3CCC1CN(C)C3)Cn1c-2c(C2CCCCC2)c2ccc(C(=O)NS(=O)(=O)N3C[C@@H](C)O[C@@H](C)C3)cc21 (stereo partly shown) [drawing 107]	1 to 500	1 to 500		
COc1ccc2c(c1)C1CC1(C(=O)N1C3CCC1CN(C)C3)Cn1c-2c(C2CCCCC2)c2ccc(C(=O)NS(=O)(=O)N3CCCCC3)cc21 (stereo not shown) [drawing 108]	1 to 500	1 to 500		
CCN(C)S(=O)(=O)NC(=O)c1ccc2c(C3CCCCC3)c3n(c2c1)CC1(C(=O)N2C4CCC2CN(C)C4)CC1c1cc(OC)ccc1-3 (stereo not shown) [drawing 109]	1 to 500	1 to 500		
CCN(CC)S(=O)(=O)NC(=O)c1ccc2c(C3CCCCC3)c3n(c2c1)CC1(C(=O)N2C4CCC2CN(C)C4)CC1c1cc(OC)ccc1-3 (stereo not shown) [drawing 110]	1 to 500	1 to 500		
COc1ccc2c(c1)C1CC1(C(=O)N1C3CCC1CN(C)C3)Cn1c-2c(C2CCCCC2)c2ccc(C(=O)NS(=O)(=O)N(C)C(C)C)cc21 (stereo not shown) [drawing 111]	1 to 500	1 to 500		
COc1ccc2c(c1)C1CC1(C(=O)N1C3CCC1CN(C)C3)Cn1c-2c(C2CCCCC2)c2ccc(C(=O)NS(=O)(=O)N(C)C3CC3)cc21 (stereo not shown) [drawing 112]	1 to 500	1 to 500		
COc1ccc2c(c1)C1CC1C(C(=O)N1C3CCC1CN(C)C3)n1c-2c(C2CCCCC2)c2ccc(C(=O)NS(=O)(=O)C3CC3)cc21 (stereo not shown) [drawing 113]	1 to 500	1 to 500		
COc1ccc2c(c1)C1CC1(C(=O)N1C3CCC1CN(C)C3)Cn1c-2c(C2CCCCC2)c2ccc(C(=O)NS(C)(=O)=O)cc21 (stereo not shown) [drawing 114]	1 to 500	1 to 500		
CCC(C)S(=O)(=O)NC(=O)c1ccc2c(C3CCCCC3)c3n(c2c1)C[C@@]1(C(=O)N2C4CCC2CN(C)C4)C[C@H]1c1cc(OC)ccc1-3 (stereo partly shown) [drawing 132]			1 to 500	1 to 500
CCC(C)S(=O)(=O)NC(=O)c1ccc2c(C3CCCCC3)c3n(c2c1)C[C@@]1(C(=O)N2C4CCC2CN(C)C4)C[C@H]1c1cc(OC)ccc1-3 (stereo partly shown) [drawing 133]	1 to 500	1 to 500		
